Tests used:
Human CCR1 = Human CCR1 (Homo sapiens (Human), UniProt P32246); test: Human CCR1 THP-1 binding assay; conditions: [125I]-MIP-1α competition, THP-1 cells
Description: For radioligand competition studies, a final concentration of 1×10^5 THP-1 monocytic leukemia cells are combined with 100 μg of LS WGA PS beads (Amersham, Cat.#: RPNQ 0260) in 40 μL of assay buffer (RPMI 1640 without phenol red, 50 mM HEPES, 5 mM MgCl2, 1 mM CaCl2, 0.1% BSA). The THP-1 cell/bead mixture was added to each well of a 384-well assay plate (PerkinElmer, Cat. #:6007899) containing test compound in 3-fold serial dilution, with final concentrations ranging from 8 μM to 0.14 nM. A final concentration of 0.1 nM [^125I]-MIP-1α (PerkinElmer, Cat. #NEX298) in 20 μL assay buffer was added to the reaction. Unlabeled MIP-1α was added in excess to some wells to determine non-specific binding. Sealed assay plates were incubated at room temperature for 12 h then analyzed by LEADseeker™.
The competition data of the test compound over a range of concentrations is plotted as percentage inhibition of radioligand specifically bound in the absence of test compound (percent of total signal). After correcting for non-specific binding, IC50 values are determined. The IC50 value is defined as the concentration of test compound needed to reduce [^125I]-MIP-1α specific binding by 50% and is calculated using the four parameter logistic equation to fit the normalized data. The Ki values are determined by application of the Cheng-Prusoff equation to the IC50 values, where Ki=IC50/(1+ligand concentration/Kd). The Kd of [^125I]-MIP-1α in THP-1 cells is 0.1 nM. Each experiment was run in duplicate.

[1] = In vitro metabolism assay, human liver microsomes, Assay Conditions B; format: in vitro ADME; conditions: 10 min, 3 μM, pH 7.4
Description: Test compound is received as 20 mM in DMSO. Compound is diluted to create a 300 μM acetonitrile (ACN) solution containing 1.5% DMSO, which is then used as a 100× stock for incubation with microsomes. Each compound is tested in duplicate separately in each of three species in the Metabolic Stability-Human, Rat, Mouse assay suite or individual species in the Metabolic Stability-Dog or Metabolic Stability-Monkey suites. Compound, NADPH and liver microsome solutions are combined for incubation in three steps: • 1. 450 μL of liver microsome suspension, protein concentration of 1 mg/mL in 100 mM NaPi, pH. 7.4, 6.6 mM MgCl2 buffer, are pre-warmed at 37° C. • 2. 5 μl of 300 μM compound (98.5% CAN, 1.5% DMSO) is added to the same tube. • 3. The reaction is initiated by the addition of 50 μl of pre-warmed 5 mM NADPH solution in 100 mM NaPi, pH 7.4.
Reaction components are mixed well and 150 μL removed to quench/stop solution immediately for the zero-minute time point. Reactions are incubated at 37° C. for 10 minutes and then an additional 150 μL removed from incubation. Aliquots removed are combined with 300 μL ACN which contains 100 μM DMN as a UV standard for detection.
Quenched mixtures are centrifuged at 1500 rpm (˜500×g) in an Allegra X-12 centrifuge, SX4750 rotor (Beckman Coulter Inc., Fullerton, Calif.) for fifteen minutes to pellet denatured microsomes. A volume of 110 μl of supernatant extract, containing the mixture of parent compound and its metabolites, is then transferred to a separate 96-well plate for UV-LC/MS-MS analysis to determine the percent of parent compound that is remaining in the mixture.

Protein binding, rabbit = format: in vitro ADME
hERG = hERG (Homo sapiens (Human), UniProt Q12809); test: hERG patch clamp assay; format: cell-based; conditions: HEK-293 cells stably expressing hERG, pH 7.4, protein-free buffer, read-out: hERG, % inh @ 30 μM
Description: Whole-cell patch-clamp was used to directly measure hERG tail currents in HEK-293 cells stably expressing the cloned hERG potassium channel α subunit. Effects of compounds were calculated by measuring inhibition of peak tail current. Experiments were carried out using an aqueous buffer with pH 7.4 at room temperature. There was no protein in the assay buffer. The test concentrations reported are nominal free drug levels.

[2] = molecular target: human cardiac sodium channel SCN5A (Homo sapiens (Human), UniProt Q14524); test: Sodium channel whole-cell patch-clamp assay; format: cell-based; conditions: HEK-293 cells expressing human cardiac sodium channel SCN5A, pH 7.4, protein-free buffer, read-out: Na, % inh
Description: Whole-cell patch-clamp was used to directly measure inward sodium currents in HEK-293 cells expressing the human cardiac sodium channel, SCN5A. After reach steady-state effect in the presence of drug, rate-dependence was assessed by stimulation at frequencies of 1 Hz and 4 Hz. Experiments were carried out using an aqueous buffer at pH 7.4 and at room temperature. There is no protein in the buffer and drug concentrations reported are nominal free drug levels. Test article was evaluated up to 10 μM (protein-free buffer). Rate-dependence of inhibition was assessed by stimulation at frequencies of 1 Hz and 4 Hz.

Protein binding, human = format: in vitro ADME
[3] = molecular target: human cardiac L-type Ca channel (α1C) and its β subunit (Homo sapiens (Human), UniProt Q13936); test: L-type calcium channel whole-cell patch-clamp assay; format: cell-based; conditions: 30 μM, HEK-293 cells, protein-free buffer
Description: In addition to the potential for interaction with the L-type calcium channel, whole-cell patch-clamp was used to directly measure inward calcium currents in HEK-293 cells stably expressing the cloned human cardiac L-type Ca channel (α1C) and its β subunit. Effects of compounds were calculated by measuring inhibition of peak current. Experiments were carried out using an aqueous buffer at pH 7.4 and at room temperature. There is no protein in the buffer and drug concentrations reported are nominal free drug levels.

Human CCR1, sequence (P32246 whole entry): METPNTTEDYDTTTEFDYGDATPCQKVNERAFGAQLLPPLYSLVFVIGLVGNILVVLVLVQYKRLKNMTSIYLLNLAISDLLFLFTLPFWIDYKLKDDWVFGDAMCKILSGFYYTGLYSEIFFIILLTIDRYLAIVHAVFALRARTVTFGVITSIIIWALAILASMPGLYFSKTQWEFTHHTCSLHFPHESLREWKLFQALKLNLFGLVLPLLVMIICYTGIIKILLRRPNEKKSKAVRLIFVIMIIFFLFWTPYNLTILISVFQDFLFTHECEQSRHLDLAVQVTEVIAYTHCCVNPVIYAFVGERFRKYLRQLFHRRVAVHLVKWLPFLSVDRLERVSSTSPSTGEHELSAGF
hERG, sequence (Q12809 whole entry): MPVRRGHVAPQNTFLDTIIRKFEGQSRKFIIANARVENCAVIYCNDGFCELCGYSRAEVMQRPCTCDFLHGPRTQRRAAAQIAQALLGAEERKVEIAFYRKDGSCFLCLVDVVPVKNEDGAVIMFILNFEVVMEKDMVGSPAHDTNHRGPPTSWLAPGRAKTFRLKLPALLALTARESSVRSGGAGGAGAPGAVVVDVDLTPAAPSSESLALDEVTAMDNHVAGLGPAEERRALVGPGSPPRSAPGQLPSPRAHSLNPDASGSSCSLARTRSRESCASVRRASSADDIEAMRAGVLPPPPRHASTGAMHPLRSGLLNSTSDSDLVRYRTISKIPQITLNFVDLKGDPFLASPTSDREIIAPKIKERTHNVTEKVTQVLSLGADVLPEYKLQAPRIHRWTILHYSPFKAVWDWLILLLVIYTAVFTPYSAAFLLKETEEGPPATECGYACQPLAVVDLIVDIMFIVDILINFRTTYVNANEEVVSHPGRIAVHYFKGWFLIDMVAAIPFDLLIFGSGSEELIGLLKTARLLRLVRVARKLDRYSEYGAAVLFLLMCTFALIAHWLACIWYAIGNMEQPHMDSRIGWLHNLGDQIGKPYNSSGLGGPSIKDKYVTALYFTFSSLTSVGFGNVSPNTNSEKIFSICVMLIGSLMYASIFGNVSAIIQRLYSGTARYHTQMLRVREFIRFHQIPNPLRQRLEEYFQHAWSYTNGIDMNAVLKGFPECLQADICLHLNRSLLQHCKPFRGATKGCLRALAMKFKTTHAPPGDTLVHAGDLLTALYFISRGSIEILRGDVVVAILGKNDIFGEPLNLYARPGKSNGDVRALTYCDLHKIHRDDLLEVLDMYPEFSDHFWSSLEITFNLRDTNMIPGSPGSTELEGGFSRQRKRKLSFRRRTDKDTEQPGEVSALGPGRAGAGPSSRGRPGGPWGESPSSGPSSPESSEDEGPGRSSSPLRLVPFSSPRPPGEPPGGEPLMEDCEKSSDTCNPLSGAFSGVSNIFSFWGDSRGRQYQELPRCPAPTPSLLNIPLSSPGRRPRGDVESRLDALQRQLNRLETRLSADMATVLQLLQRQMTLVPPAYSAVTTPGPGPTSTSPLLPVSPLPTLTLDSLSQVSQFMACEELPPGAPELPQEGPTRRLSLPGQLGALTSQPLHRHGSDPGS
human cardiac sodium channel SCN5A, sequence (Q14524 whole entry): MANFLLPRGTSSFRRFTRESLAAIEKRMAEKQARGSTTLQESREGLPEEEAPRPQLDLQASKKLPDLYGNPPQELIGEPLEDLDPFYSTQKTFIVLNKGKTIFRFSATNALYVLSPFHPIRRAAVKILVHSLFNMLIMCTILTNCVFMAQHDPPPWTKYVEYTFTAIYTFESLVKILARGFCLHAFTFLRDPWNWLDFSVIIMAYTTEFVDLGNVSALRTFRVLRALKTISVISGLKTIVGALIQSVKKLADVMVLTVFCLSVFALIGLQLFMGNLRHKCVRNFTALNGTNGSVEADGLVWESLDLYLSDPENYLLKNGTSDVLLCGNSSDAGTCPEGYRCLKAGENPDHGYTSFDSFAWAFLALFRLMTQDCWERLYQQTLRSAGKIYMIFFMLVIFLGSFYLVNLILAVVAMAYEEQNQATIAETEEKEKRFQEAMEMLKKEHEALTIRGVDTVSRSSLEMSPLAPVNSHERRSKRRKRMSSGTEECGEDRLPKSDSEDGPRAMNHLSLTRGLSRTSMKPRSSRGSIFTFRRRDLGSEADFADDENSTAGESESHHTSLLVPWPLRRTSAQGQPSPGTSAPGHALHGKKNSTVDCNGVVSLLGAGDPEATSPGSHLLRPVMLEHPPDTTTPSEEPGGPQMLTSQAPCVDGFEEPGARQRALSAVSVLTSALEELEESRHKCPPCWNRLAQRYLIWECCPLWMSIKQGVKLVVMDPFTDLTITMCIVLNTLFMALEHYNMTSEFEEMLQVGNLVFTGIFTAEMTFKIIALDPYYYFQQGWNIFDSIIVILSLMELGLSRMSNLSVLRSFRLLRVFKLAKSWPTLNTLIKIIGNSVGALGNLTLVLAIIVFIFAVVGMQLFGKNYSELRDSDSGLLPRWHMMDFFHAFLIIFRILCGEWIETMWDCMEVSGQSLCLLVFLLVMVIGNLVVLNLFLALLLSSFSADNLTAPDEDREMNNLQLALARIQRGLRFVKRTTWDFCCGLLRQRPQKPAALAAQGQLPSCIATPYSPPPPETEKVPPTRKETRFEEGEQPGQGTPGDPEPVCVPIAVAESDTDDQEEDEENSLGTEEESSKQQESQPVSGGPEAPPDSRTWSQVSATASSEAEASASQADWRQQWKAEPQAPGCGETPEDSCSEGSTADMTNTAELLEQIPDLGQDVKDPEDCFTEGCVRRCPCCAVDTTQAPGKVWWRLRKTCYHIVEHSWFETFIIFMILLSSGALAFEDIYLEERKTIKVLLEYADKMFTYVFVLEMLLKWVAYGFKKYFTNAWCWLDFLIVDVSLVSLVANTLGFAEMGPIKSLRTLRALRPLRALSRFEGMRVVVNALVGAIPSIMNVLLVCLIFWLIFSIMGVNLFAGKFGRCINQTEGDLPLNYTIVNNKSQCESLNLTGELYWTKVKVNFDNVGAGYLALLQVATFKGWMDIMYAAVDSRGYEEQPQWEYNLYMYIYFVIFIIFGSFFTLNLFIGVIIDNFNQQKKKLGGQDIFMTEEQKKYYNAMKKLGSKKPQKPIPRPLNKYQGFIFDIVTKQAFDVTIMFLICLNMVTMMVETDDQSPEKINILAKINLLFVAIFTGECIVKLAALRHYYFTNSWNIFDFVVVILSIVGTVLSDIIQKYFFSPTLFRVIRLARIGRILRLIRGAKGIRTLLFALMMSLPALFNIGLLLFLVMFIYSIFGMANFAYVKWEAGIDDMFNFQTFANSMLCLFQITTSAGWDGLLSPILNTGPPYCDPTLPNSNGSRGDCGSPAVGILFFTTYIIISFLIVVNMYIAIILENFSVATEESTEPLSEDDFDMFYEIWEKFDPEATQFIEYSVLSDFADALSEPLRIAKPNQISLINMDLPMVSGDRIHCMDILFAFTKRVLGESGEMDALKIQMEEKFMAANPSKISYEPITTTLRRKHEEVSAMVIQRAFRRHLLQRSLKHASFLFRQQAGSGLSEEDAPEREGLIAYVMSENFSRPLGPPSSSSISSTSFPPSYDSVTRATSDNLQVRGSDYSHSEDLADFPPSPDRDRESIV

SMILES | Ki (Human CCR1) [nM] | Human Liver Microsomal Metabolism % remaining (Assay Conditions B) [1] | fraction unbound (Protein binding, rabbit) | inhibition at 30 µM (hERG) [%] | inhibition at 10 µM [2] [%] | fraction unbound (Protein binding, human) | Ca, % inh [3] [% @ 30 μM]
CC(C)[C@@H](NC(=O)C1CCCC1)C(=O)N1CC[C@](O)(c2ccc(Cl)cc2)C(C)(C)C1 [#460] | 0.7 | 16% | – | – | – | – | –
CC(C)CC(=O)N[C@@H](C(=O)N1CC[C@](O)(c2ccc(Cl)cc2)C(C)(C)C1)C(C)C [#466] | 2.6 | 33% | – | – | – | – | –
CC(C)[C@@H](NC(=O)CC(C)(C)O)C(=O)N1CC[C@](O)(c2ccc(Cl)cc2)C(C)(C)C1 [#1356] | 3.7 | 100% (A)/100% (B) | – | – | – | – | –
CC(C)[C@@H](NC(=O)NCC(C)(C)O)C(=O)N1CC[C@](O)(c2ccc(Cl)cc2)C(C)(C)C1 [Compound I] | 0.7 | 100% (B) | 0.13 | 29 | 12 | 0.19 | 29
